Experimental data reported in patent US20090030017A1, “THERAPEUTIC AGENT FOR DYSKINESIA” (Eisai R & D Management Co., Ltd, priority 2005, published 2009).
Like-named read-outs stand apart in the source and are kept apart here.

Legend:
dyskinesia [1] = details: rhesus monkey models; cited from earlier work
[2] = system: L-DOPA induced dyskinesia; assay: L-DOPA induced dyskinesia model in monkey (MPTP-treated, L-DOPA methylester and benserazide); assay type: in vivo, crab-eating macaques; details: substance administered 20 minutes before L-DOPA methylester and benserazide, scored every 30 minutes for 5 hours
Procedure: To male crab-eating macaques, MPTP (1-methyl-4-phenyl-1,2,3,6-tetrahydropyridine) was frequently administered intravenously or subcutaneously in a dose of 0.2 to 1 mg/kg to cause Parkinson's disease.
In order to check the effect of the substance to be tested, i.e., 3-(2-cyanophenyl)-5-(2-pyridyl)-1-phenyl-1,2-dihydropyridine-2-on, the administration dose of L-DOPA methylester was adjusted to control the severity of the dyskinesia to a certain state.
The behavior before the administration of drugs (L-DOPA methylester and benserazide) was recorded, and then the substance to be tested was administered. 20 minutes after that, L-DOPA methylester and benserazide were administered.
The severity of the symptoms of Parkinson's disease was evaluated based on the items shown in Table 1 in a blinded manner, and shown as the total score.
The dyskinesia induced by the side effects of the administration of L-DOPA methylester and benserazide was evaluated based on the items shown in Table 2 in a blinded manner. […]
The symptoms were evaluated in a time-series manner before the administration of the drugs, and every 30 minutes after the administration of the drugs, for a total of 5 hours. The effect of the substance to be tested was determined as follows. […]

dyskinesia [3] = details: cited from earlier work
dyskinesia [4] = details: cited from earlier work; remark: listed apart in the source

SMILES: CCN(CC)Cc1cccc(C=Cc2nc3ccc(F)cc3c(=O)n2-c2ccccc2Cl)n1 [3-(2-chlorophenyl)-2-[2-(6-diethylaminomethylpyridine-2-yl)-vinyl]-6-fluoro-3H-quinazoline-4-on]
- effect on dyskinesia (dyskinesia [1]): has an effect on dyskinesia

SMILES: N#Cc1ccccc1-c1cc(-c2ccccn2)cn(-c2ccccc2)c1=O [3-(2-cyanophenyl)-5-(2-pyridyl)-1-phenyl-1,2-dihydropyridine-2-on]
- effect on dyskinesia (dyskinesia score, severity of dyskinesia) ([2]; FIG. 1, significant vs solvent P<0.01): provided an dyskinesia suppressing action
- effect on the symptoms of Parkinson's disease (total score) ([2]; FIG. 2, significant vs solvent P<0.05, P<0.01): clearly improving the symptoms of Parkinson's disease

SMILES: CC(=O)N1N=C(c2ccc(N)cc2)c2cc3c(cc2C[C@H]1C)OCO3 [LY-300164, Talampanel]
- effect on dyskinesia (dyskinesia [3]; MPTP-treated monkeys with L-DOPA induced dyskinesia): the dyskinesia were improved
- effect on the symptoms of Parkinson's disease (symptom scores) (dyskinesia [3]; experiment with the monkeys): not recognized as having an effect of clearly improving the symptoms of Parkinson's disease

SMILES: CC1(C)O[C@@H]2[C@@H](CO[C@@]3(COS(N)(=O)=O)OC(C)(C)O[C@@H]23)O1 [Topiramate]
- effect on the symptoms of Parkinson's disease (dyskinesia [4]; in vivo): shows a tendency of deteriorating the symptoms of Parkinson's disease, although not significantly
- effect on dyskinesia (dyskinesia [4]; marmoset models): has an action of suppressing dyskinesia
